Laboratory results taken from the NIST ThermoML archive (doi:10.1021/acs.jced.8b00333).
Numbers after ± are expanded uncertainties.

Assays:
[1] = Crystal; DTA
[2] = Molar enthalpy of transition or fusion; settings: Crystal; DSC

Normal melting temperature [1]: 153.36 ± 1.1 °C
Molar enthalpy of transition or fusion [2]: 13.9 ± 0.335 kcal/mol
Structure (SMILES): CCOC(=O)[C@H](CCc1ccccc1)N[C@@H](C)C(=O)O [((S)-1-ethoxy-1-oxo-4-phenylbutan-2-yl)-L-alanine]
